Test results reported in publication PMC8219695 (Nature Communications, 2021).
Values joined by “and” are separate entries in the source; they are usually repeats but may differ in a detail not shown here. Equal values may be shown once.

Legend:
[1] = biological target: T1, mMOR (Mus musculus, UniProt P42866); assay: BRET-based Nb33 recruitment assay at mMOR; assay type: cell-based; conditions: for Nb33 BRET assay at mMOR, response: single replicates, source data Fig 7a; for Emax mMOR: Nb33 BRET; for Emax mMOR / Emax: relative to DAMGO; for Emax: read-out: Emax mMOR, Nb33 BRET
T1 construct: signal peptide (heterologous, not specified) (N); expressed in transfected cells; pcDNA3.1(+) construct made in house
T1 sequence (P42866 whole entry): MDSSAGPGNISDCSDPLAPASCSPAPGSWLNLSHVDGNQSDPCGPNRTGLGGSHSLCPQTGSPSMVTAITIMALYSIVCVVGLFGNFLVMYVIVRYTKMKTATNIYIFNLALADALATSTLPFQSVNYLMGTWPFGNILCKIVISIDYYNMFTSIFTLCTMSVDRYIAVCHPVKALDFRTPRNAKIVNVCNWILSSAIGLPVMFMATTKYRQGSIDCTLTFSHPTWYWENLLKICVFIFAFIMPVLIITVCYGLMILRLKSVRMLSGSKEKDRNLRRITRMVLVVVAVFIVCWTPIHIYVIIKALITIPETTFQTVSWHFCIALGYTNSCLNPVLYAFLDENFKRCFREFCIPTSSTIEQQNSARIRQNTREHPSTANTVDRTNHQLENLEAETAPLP

[2] = biological target: T2, hMOR (Homo sapiens, UniProt P35372); assay: cell-based; conditions: read-out: Emax hMOR
T2 construct: expressed in transfected cells; plasmid a gift from Dr. Nevin Lambert
T2 sequence (P35372 whole entry): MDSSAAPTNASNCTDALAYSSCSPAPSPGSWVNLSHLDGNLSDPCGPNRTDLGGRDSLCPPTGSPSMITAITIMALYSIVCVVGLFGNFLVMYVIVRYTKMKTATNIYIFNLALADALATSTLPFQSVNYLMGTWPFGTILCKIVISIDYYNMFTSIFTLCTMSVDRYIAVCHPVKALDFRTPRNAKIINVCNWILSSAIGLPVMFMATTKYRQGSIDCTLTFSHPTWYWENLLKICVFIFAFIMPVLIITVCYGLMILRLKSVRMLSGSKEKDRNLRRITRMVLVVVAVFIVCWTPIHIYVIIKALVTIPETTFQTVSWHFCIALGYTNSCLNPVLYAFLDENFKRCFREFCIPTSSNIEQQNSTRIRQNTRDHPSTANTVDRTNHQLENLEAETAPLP

[3] = system: C57BL/6 mice; assay: Tail-flick dose-response in C57BL/6 mice; assay type: in vivo, mouse; conditions: for ED50: Mus musculus, 0.25 h, read-out: ED50 (95% CI) tail-flick, n = 10; for mouse tail-flick assay (%MPE): 15 minute time point, individual animals
Description: CD1 mice (n = 10), at peak analgesic time point. […] Dose–response curves of 22 (s.c.), in the tail-flick assay was evaluated 15 min post drug administration in WT, C57 mice (n = 8) and MOR KO mice (n = 5). Each point represents mean ± SEM.
(§1) For analgesic dose–response experiments, male CD1 mice (20–32 g), 6–8 weeks were obtained from Charles River Laboratories and male C57BL/6 mice (22–30 g), 8–15 weeks were obtained from Jackson Lab (Bar Harbor, ME) and housed 5 mice per cage in a vivarium following an IACUC-approved protocol. For male C57BL/6 mice temperature was kept constant at 22 ± 2 °C, and relative humidity was maintained at 50 ± 5%. For male CD1 mice (20–32 g) the temperature was in the range of 20–26 °C and relative humidity maintained within the range of 30–70%. Mice were given access to food and tap water ad libitum. All mice used throughout the manuscript were opioid naïve. All mice were maintained on a 12 h light/dark cycle with Purina rodent chow and water available ad libitum and housed in groups of five until testing.
Tail-flick antinociception was determined using the radiant heat tail-flick technique using an Ugo Basile model 37360 instrument as previously described[95],[96]. The intensity was set to achieve a baseline between 2 and 3 s. Baseline latencies were determined before experimental treatments for all mice. Tail-flick antinociception was assessed as an increase in baseline latency, with a maximal 15 s latency to minimize damage to the tail. Data were analyzed as percent maximal effect, % MPE, and was calculated according to the formula: % MPE = [(observed latency – baseline latency)/(maximal latency – baseline latency)] × 100. Compounds were injected s.c. and antinociception was assessed at the peak effect. Mice were tested for analgesia with cumulative subcutaneous doses of the drug until the mouse can withstand the maximal latency. Once the mouse reached the maximal latency, the mouse was no longer given higher doses. […] In vivo experiments were evaluated using GraphPad Prism 8, San Diego, CA as described above.
96-well plate (no. 60050; Perkin Elmer; Waltham, MA, USA). At time zero, the luciferase substrate coelenterazine H (5 μM) was added to each well. Ligands were added after 5 min, then BRET signal was measured 10 min later. BRET measurements were performed using a PHERAstar FS plate reader (BMG Labtech, Cary, NC, USA). The BRET signal was calculated as the ratio of the light emitted by the mVenus […]
Dose–response curves were fit using a three-parameter logistic equation in GraphPad Prism 8 (Graphpad Software, La Jolla, CA, USA).
All experiments were repeated in at least three independent trials each with triplicate determinations.
as §1, with “dose-response” for “dose–response”, “g),6-8” for “g), 6–8”, “20-26” for “20–26”, “30-70%.” for “30–70%.”
For analgesic testing in knockout animals, wild-type, male C57BL/6 mice (22–33 g), 10-12 weeks were purchased from the Jackson Lab (Bar Harbor, ME). These mice were kept at a constant temperature of 22 ± 2 °C, and relative humidity was maintained at 40-50%. Exon-1/Exon-11 MOR-1 KO mice on a C57 background were bred in the Pintar laboratory at Rutgers University. All mice were maintained on a 12- […]

[4] = system: mice; conditions: previously determined; cited from earlier work
[5] = sc, s.c., 15 min time point, C57BL/6 mice

## CC[C@@H]1CN2CC[C@@]3(O)C(=Nc4cccc(OC)c43)[C@@H]2C[C@@H]1/C(=C\OC)C(=O)OC [7OH, 7-Hydroxymitragynine, reference compound]
[1]
  EC50: 15 nM
  Emax mMOR: ~ 20%
  Emax: ~14%
[1]; Log[drug] (M) -5, listed as 7-OH Mitragynine
  Nb33 BRET assay at mMOR, response: 31.8558 and 13.6622 and 18.9084 and 19.9525 and 1.3915 and 5.568 and 5.853 and 2.0473 and 9.468
[1]; Log[drug] (M) -6, listed as 7-OH Mitragynine
  Nb33 BRET assay at mMOR, response: 11.2448 and 12.7863 and 8.673 and 7.158 and -2.301 and 5.3956 and -5.256 and 15.8192 and 11.2218
[1]; Log[drug] (M) -7, listed as 7-OH Mitragynine
  Nb33 BRET assay at mMOR, response: 34.9577 and 9.119 and 11.9292 and 16.603 and 7.256 and -0.02541 and 7.483 and 5.463 and 3.637
[1]; Log[drug] (M) -8, listed as 7-OH Mitragynine
  Nb33 BRET assay at mMOR, response: 18.0513 and 18.0293 and 14.3718 and -0.3281 and -6.115 and -12.1072 and 6.0021 and 5.2851 and -7.797
[1]; Log[drug] (M) -9, listed as 7-OH Mitragynine
  Nb33 BRET assay at mMOR, response: -7.335 and -6.503 and -1.285 and -14.3312 and -4.26 and -7.41 and 7.337 and -0.23 and -1.333
[1]; Log[drug] (M) -10, listed as 7-OH Mitragynine
  Nb33 BRET assay at mMOR, response: -7.162 and 6.7364 and 17.2382 and -2.279 and -1.22 and 15.6435 and -10.3312 and 4.394 and -8.638
[1]; Log[drug] (M) -11, listed as 7-OH Mitragynine
  Nb33 BRET assay at mMOR, response: 8.105 and -10.4588 and 2.354 and -4.559 and 5.739 and -1.18 and -4.753 and 4.633 and 0.1195
[2]
  Emax: ~22%
[3]; [5]
  ED50: 0.25 mg/kg
[3]; dose 0.1, s.c., listed as 7-OH mitragynine
  mouse tail-flick assay (%MPE): 5.405 %MPE and 8.511 %MPE and 8.661 %MPE and 16.5289 %MPE and 34.8214 %MPE and 6.87 %MPE and 7.627 %MPE and -5.556 %MPE and 0.7299 %MPE and 3.6036 %MPE
[3]; dose 0.3, s.c., listed as 7-OH mitragynine
  mouse tail-flick assay (%MPE): 36.036 %MPE and 12.0567 %MPE and 36.2205 %MPE and 44.6281 %MPE and 52.6786 %MPE and 100 %MPE (3×) and 73.7288 %MPE and 72.2628 %MPE
[3]; dose 1, s.c.
  mouse tail-flick assay (%MPE): 100 %MPE
[3]; s.c., 15 min time point, C57BL/6 mice, 7OH normalized to 100%
  analgesic efficacy (Emax): 100%
[4]
  ED50 (95% CI) mouse tail-flick: 0.57 (0.19–1.7) mg/kg

## CC[C@@H]1CN2CC[C@@]3(O)C(=Nc4cc(F)cc(OC)c43)[C@@H]2C[C@@H]1/C(=C\OC)C(=O)OC [11-F-7OH (22), 11-Fluoro-7-hydroxymitragynine]
[1]; Log[drug] (M) -5, listed as C11-F-7OH (22)
  Nb33 BRET assay at mMOR, response: 6.583 and -1.77 and -4.813 and -2.626 and -1.32 and 4.487 and 18.3783 and 26.5383 and 5.598 and 5.585 and 0.2094 and 5.293
[1]; Log[drug] (M) -6, listed as C11-F-7OH (22)
  Nb33 BRET assay at mMOR, response: 0.6338 and 14.8405 and 14.4384 and 1.573 and -3.3849 and 2.324 and 3.469 and 13.567 and 11.5483 and 6.799 and 5.845 and 11.4048
[1]; Log[drug] (M) -7, listed as C11-F-7OH (22)
  Nb33 BRET assay at mMOR, response: 2.525 and -4.237 and 5.069 and -13.128 and 0.1228 and -1.54 and 7.378 and 4.077 and 0.2648 and 1.54 and -4.687 and 9.074
[1]; Log[drug] (M) -8, listed as C11-F-7OH (22)
  Nb33 BRET assay at mMOR, response: 0.2904 and 1.436 and 1.352 and 1.678 and 1.793 and -7.9215 and -6.277 and -6.486 and -0.06826 and 14.2168 and -0.06924 and 8.399
[1]; Log[drug] (M) -9, listed as C11-F-7OH (22)
  Nb33 BRET assay at mMOR, response: -2.727 and 5.58 and 0.2255 and 4.116 and 4.119 and -5.256 and -3.689 and -9.68 and 0.5281 and 3.825 and 2.847 and -6.097
[1]; Log[drug] (M) -10, listed as C11-F-7OH (22)
  Nb33 BRET assay at mMOR, response: 3.545 and 0.5186 and 8.52 and 1.379 and 2.542 and 3.339 and 3.8632 and -1.052 and 9.1269 and 14.9582 and 6.739 and 3.3642
[1]; Log[drug] (M) -11, listed as C11-F-7OH (22)
  Nb33 BRET assay at mMOR, response: 21.3407 and -2.769 and 15.6698 and -2.476 and 2.836 and -0.3605 and -4.304 and -16.5097 and 20.8133 and -2.923 and -1.5757 and 4.499
[1]
  Emax mMOR: near the detection limit of the assay
  Emax: < 10%
[2]
  Emax: < 10%
[3]; [5]
  ED50: 0.18 mg/kg
[3]; dose 0.1, s.c.
  mouse tail-flick assay (%MPE): 1.681 %MPE and 10.3175 %MPE and -0.885 %MPE and 20.8955 %MPE and 3.731 %MPE and 1.653 %MPE and 0.813 %MPE and 15.7895 %MPE and 6.383 %MPE and 0 %MPE
[3]; dose 0.3, s.c.
  mouse tail-flick assay (%MPE): 0.8403 %MPE and 3.1746 %MPE and -13.2743 %MPE and 18.6567 %MPE and 7.463 %MPE and 12.3967 %MPE and 9.7561 %MPE and 0 %MPE and 87.9433 %MPE and 12.2137 %MPE
[3]; dose 1, s.c.
  mouse tail-flick assay (%MPE): 68.0672 %MPE and 18.254 %MPE and 1.77 %MPE and 24.6269 %MPE and 3.731 %MPE and 5.785 %MPE and 8.943 %MPE and 18.0451 %MPE and 87.234 %MPE and 3.053 %MPE
[3]; dose 3, s.c.
  mouse tail-flick assay (%MPE): 18.4874 %MPE and 30.1587 %MPE and 45.1327 %MPE and 31.3433 %MPE and 5.97 %MPE and 7.438 %MPE and 17.8862 %MPE and 23.3083 %MPE and 30.4964 %MPE and 6.87 %MPE
[3]; dose 10, s.c.
  mouse tail-flick assay (%MPE): 6.723 %MPE and 21.4286 %MPE and -9.735 %MPE and 22.3881 %MPE and 14.9254 %MPE and 0 %MPE and 17.0732 %MPE and 28.5714 %MPE and 55.3192 %MPE and 12.9771 %MPE
[3]; mouse, in vivo, sc
  analgesic efficacy (Emax): 21%
